Measured values: ChEMBL document CHEMBL1201862, “PubChem BioAssay data set” (2004)
The source made the active and inactive calls.

Assays:
[1] = HEK293 cell cytotoxicity, dose response, cytotoxicity control, plate reader, cherry-picked samples (AID 743446); assay type: functional, cell-based
[2] = HepG2 cell cytotoxicity, dose response, cytotoxicity control, plate reader, cherry-pick, antagonist series (AID 743416); assay type: functional, cell-based
[3] = target: T1, Luciferin 4-monooxygenase (Photinus pyralis, UniProt P08659); test: firefly luciferase enzyme inhibitors, dose response, biochemical, luminescence (AID 1891)
T1 sequence (P08659 whole entry, the tested form may be a part): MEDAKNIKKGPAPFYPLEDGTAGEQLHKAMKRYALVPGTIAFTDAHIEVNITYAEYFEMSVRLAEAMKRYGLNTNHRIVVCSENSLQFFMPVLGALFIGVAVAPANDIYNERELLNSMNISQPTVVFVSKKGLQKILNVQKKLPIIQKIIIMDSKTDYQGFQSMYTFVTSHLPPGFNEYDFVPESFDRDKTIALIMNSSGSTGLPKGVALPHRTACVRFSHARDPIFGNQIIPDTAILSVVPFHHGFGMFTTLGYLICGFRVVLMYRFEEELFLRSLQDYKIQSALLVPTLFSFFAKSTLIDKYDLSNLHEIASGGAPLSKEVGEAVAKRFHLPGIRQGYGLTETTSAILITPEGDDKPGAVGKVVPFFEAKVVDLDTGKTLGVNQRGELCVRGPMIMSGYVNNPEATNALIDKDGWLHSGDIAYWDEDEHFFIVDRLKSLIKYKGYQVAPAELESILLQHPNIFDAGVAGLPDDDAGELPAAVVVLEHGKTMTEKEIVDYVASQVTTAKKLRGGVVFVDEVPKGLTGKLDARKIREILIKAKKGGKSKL

[4] = off-target signal loss in HeLa-CEM21 co-culture – HeLa F-luc CTL cells, cherry-picked, counter-screen for HIV-1 Env fusion inhibitor project, dose response (AID 652040); assay type: functional, cell-based;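 also: potency for signal decrease marking cytotoxic or nonspecific inhibition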
[5] = Luminescence Cell-Based Dose Confirmation HTS to Identify Inhibitors of Platelet Dense Granule Release. [Related pubchem assays: 1663 (Primary HTS), 1678 (Summary of Project)]; assay type: functional
[6] = target: T1, Luciferin 4-monooxygenase; test: firefly luciferase enzyme inhibitors, dose response, biochemical, dry powder samples, plate reader (AID 588451)
[7] = HepG2 cell cytotoxicity, dose response, cytotoxicity control for Shn3 inhibitor project, CellTiter-Glo, cherry-picked (AID 624134); assay type: functional, cell-based
[8] = LGR2 antagonists, dose response, cell-based, HEK293, CRE-luciferase reporter, cherry pick, set 2 (AID 743343); assay type: functional;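 also: transfected cells were stimulated with diluted bursicon conditioned medium after compound addition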
[9] = inhibitors of firefly luciferase expression or activity, dose response, H4 neuroglioma cells, luminescence (AID 1990); assay type: functional, cell-based
[10] = reduction of Shn3 3'UTR firefly luciferase signal, dose response, Schnurri-3 inhibitor project, cell-based, Clone20 osteoblasts, cherry-pick, set 2 (AID 720490); assay type: functional;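 also: actives lower the luminescence signal as inhibitors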
[11] = Shn3 3'UTR reporter inhibitors, dose response, cell-based, Clone20 osteoblasts, firefly luciferase, cherry-picked (AID 624132); assay type: functional;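 also: firefly luciferase luminescence from reporter carrying the Shn3 3'UTR in osteoblasts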
H4 [12] = test: Inhibitors of Prion Protein 5' UTR mRNA Measured in Cell-Based System Using Plate Reader - 2078-01_Inhibitor_Dose_DryPowder_Activity. [Related pubchem assays (depositor defined):AID488894]; assay type: functional; details: Homo sapiens
[13] = inhibitors of SNCA 5'UTR-driven reporter translation, confirmation, H4 neuroglioma cells, luminescence (AID 1988); assay type: functional, cell-based
H4 [14] = test: inhibitors of control reporter signal in H4 cells – cell-based, plate reader, dry powder samples, counter-screen for prion reporter project, dose response (AID 540255); assay type: functional; details: Homo sapiens
[15] = Luminescence Cell-Based Dose Response HTS to Identify Inhibitors of 5'UTR Stem-Loop Driven Prion Protein mRNA Translation in H4 Neuroglioblastoma Cells. [Related pubchem assays: 1827 (Project Summary), 1813 (Primary HTS)]; assay type: functional
[16] = inhibitors of HIV Env-driven cell fusion, dose response, cherry-pick (AID 652057); assay type: functional, cell-based
[17] = CEM21 lymphoblast cell cytotoxicity, dose response, cytotoxicity control for viral fusion inhibitor project, CellTiter-Glo luminescence, cherry-picked (AID 652042); assay type: functional, cell-based;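 also: potency for signal decrease meaning cytotoxicity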
[18] = MC4R antagonists, dose response, counter-screen for LGR2 antagonist project, cell-based, plate reader, cherry pick (AID 743444); assay type: functional;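 also: transfected HEK 293 cells stimulated with alpha-MSH peptide; potency of inhibitors of the alpha-MSH evoked signal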
[19] = A549 cell cytotoxicity, dose response, cytotoxicity control, plate reader, cherry-pick, antagonist series (AID 743412); assay type: functional, cell-based
[20] = target: T2, Heat shock factor protein 1 (Mus musculus, UniProt P38532); test: inhibition of MG132-induced HSE-luciferase signal, confirmation, cell-based, NIH3T3, luminescence, dose retest (AID 2382); assay type: functional;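 also: NIH3T3 fibroblasts with HSF1-driven luciferase reporter stressed by proteasome inhibitor MG132; luminescence from HSF1-driven luciferase expression after 8 hours of MG132 stress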
T2 sequence (P38532 whole entry): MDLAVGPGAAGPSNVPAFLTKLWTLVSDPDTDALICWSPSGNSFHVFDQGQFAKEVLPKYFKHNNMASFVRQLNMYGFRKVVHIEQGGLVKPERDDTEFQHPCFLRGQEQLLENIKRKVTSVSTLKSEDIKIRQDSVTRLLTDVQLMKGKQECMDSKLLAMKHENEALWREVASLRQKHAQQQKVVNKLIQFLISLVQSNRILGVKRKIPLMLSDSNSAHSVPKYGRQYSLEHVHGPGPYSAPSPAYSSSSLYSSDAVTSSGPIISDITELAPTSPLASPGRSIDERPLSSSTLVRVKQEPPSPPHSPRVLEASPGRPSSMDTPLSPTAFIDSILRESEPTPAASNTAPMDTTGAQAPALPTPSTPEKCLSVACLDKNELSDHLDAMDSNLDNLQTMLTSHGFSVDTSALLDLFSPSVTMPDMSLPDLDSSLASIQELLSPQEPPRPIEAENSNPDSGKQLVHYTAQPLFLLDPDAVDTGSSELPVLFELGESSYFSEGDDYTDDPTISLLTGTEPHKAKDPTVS

[21] = ZM109 Env clade C HIV-1 fusion inhibitors, dose response, HeLa effector, CEM target cells, luciferase, cherry-pick (AID 652058); assay type: functional, cell-based
H4 [22] = test: Amyloid Precursor 5' UTR neuroblastoma cell reporter line Measured in Cell-Based System Using Plate Reader - 2078-04_Inhibitor_Dose_DryPowder_Activity. [Related pubchem assays (depositor defined):AID488894]; assay type: functional; details: Homo sapiens
[23] = cytotoxicity in HEK-293T cells, dose response, cytotoxicity control for TCR NF-kB inhibitor project, luminescence, T-cell screen hits (AID 489026); assay type: functional, cell-based;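 also: cells exposed to compound about 14 hours before the viability readout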
[24] = inhibitors of clade B AD8 Env fusion, dose response, cell-based, cherry-pick (AID 652062); assay type: functional;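 also: luciferase signal from cell-cell fusion driven by HIV-1 clade B AD8 Env; potency is for inhibitors of fusion seen as a drop in luminescence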
Insulin-degrading enzyme [25] = target: T3, Insulin-degrading enzyme (Homo sapiens, UniProt P14735); test: activators of recombinant IDE enzyme, dose response, counter-screen for IDE activator project, biochemical, fluorescence polarization (AID 588681)
T3 sequence (P14735 whole entry): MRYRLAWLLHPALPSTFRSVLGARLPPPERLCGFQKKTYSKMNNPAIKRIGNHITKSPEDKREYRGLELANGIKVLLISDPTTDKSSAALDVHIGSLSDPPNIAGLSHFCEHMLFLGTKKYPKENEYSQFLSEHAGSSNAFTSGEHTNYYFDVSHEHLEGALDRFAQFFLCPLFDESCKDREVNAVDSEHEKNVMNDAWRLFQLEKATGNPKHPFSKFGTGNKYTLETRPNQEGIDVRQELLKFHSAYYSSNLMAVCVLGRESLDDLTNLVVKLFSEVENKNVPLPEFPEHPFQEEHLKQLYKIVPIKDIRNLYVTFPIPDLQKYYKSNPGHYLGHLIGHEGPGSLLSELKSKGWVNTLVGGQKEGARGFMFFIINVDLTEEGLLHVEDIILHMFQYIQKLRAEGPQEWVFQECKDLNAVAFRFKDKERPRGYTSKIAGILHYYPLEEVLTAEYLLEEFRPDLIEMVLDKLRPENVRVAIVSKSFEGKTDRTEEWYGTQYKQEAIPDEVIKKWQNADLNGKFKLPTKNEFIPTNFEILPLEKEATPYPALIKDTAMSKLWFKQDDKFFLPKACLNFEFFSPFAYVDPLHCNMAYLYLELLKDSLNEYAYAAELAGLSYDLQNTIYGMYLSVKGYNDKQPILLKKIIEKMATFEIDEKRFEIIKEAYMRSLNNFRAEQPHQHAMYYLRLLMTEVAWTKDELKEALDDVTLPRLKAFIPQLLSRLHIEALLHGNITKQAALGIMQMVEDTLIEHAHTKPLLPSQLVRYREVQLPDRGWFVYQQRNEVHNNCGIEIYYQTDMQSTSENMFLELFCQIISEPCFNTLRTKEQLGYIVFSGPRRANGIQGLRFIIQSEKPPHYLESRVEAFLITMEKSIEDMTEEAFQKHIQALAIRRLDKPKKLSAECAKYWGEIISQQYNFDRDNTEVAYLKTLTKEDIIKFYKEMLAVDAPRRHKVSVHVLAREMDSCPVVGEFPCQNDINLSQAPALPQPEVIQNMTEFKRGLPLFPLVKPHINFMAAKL

Insulin-degrading enzyme [26] = target: T3, Insulin-degrading enzyme; test: activators of endogenous IDE in HEK cells, dose response, cell-based, fluorescence polarization (AID 588439); assay type: functional
[27] = target: FAD-linked sulfhydryl oxidase ALR (Homo sapiens, UniProt P55789); test: inhibitors of human ALR sulfhydryl oxidase, dose response, biochemical, H2O2 detection, luminescence, cherry-pick (AID 493248)
Sequence of FAD-linked sulfhydryl oxidase ALR (P55789 whole entry): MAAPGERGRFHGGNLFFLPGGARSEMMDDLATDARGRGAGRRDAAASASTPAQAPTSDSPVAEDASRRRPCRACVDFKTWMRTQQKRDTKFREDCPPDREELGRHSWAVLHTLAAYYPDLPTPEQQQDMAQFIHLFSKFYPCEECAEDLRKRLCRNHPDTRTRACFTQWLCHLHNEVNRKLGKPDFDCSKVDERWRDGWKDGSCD

HEK293 [28] = test: optical interference in Abeta FP readout, dose response, artefact control for IDE activator project, biochemical, fluorescence polarization (AID 588442); assay type: functional, cell-based; details: Homo sapiens
HEK293 [29] = test: HEK cell cytotoxicity by LDH release, dose response, cytotoxicity control for IDE activator project, fluorescence, HEK cells (AID 588440); assay type: functional, cell-based; details: Homo sapiens;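 also: cytotoxicity by LDH release measuring loss of membrane integrity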
Apelin receptor = Apelin receptor (Homo sapiens, UniProt P35414); test: APJ beta-arrestin recruitment antagonism, SAR follow-up, selectivity assay for CCR6 antagonist project, cell-based, luminescent, enzyme-fragment complementation (AID 588359); assay type: functional
Sequence of Apelin receptor (P35414 whole entry, the tested form may be a part): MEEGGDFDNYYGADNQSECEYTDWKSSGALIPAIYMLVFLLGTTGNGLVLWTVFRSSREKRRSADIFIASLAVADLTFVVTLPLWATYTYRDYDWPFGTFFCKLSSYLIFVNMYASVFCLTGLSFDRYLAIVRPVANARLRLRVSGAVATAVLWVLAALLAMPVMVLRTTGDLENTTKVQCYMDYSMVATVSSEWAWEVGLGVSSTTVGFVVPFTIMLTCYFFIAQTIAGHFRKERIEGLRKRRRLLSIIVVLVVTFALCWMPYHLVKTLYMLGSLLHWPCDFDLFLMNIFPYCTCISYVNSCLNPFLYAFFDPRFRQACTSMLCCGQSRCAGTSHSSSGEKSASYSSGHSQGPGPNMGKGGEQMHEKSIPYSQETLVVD

[30] = target: T4, C-C chemokine receptor type 6 (Homo sapiens, UniProt P51684); test: CCR6 receptor antagonists, SAR follow-up, cell-based, luminescent beta-arrestin readout (AID 540334); assay type: functional
T4 sequence (P51684 whole entry): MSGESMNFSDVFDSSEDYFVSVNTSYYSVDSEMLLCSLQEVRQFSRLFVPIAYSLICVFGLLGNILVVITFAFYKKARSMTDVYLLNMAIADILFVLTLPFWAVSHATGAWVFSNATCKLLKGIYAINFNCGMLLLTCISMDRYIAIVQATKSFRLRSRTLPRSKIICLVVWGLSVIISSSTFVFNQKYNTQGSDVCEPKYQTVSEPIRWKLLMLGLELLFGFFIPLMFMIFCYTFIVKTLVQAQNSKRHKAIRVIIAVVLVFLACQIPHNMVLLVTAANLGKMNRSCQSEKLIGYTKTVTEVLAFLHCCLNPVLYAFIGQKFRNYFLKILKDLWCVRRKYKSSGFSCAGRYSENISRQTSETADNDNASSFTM

[31] = target: C-X-C chemokine receptor type 5 (Homo sapiens, UniProt P32302); test: CXCR5 receptor antagonists, SAR follow-up, selectivity assay for CCR6 antagonist project, cell-based, beta-arrestin, luminescence, CHO-K1 PathHunter (AID 540340); assay type: functional
Sequence of C-X-C chemokine receptor type 5 (P32302 whole entry): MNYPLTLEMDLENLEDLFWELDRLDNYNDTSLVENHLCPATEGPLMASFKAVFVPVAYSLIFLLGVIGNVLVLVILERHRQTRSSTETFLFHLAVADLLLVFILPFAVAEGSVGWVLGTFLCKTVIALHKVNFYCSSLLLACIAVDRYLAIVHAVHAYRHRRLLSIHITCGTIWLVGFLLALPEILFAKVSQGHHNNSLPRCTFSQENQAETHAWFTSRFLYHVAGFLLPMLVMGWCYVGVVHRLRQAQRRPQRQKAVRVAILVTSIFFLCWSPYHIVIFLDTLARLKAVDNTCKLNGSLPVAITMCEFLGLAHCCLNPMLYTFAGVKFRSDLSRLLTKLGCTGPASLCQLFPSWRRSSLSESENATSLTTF

[32] = THP-1 cell cytotoxicity, dose response, cytotoxicity control, set 3 (AID 504852); assay type: functional; details: Mycobacterium tuberculosis
[33] = target: Protein disulfide-isomerase (Homo sapiens, UniProt P07237); test: PDI inhibitors, insulin aggregation turbidity, dose response, biochemical, absorbance, cherry-picked samples (AID 602350); assay type: functional
Sequence of Protein disulfide-isomerase (P07237 whole entry, the tested form may be a part): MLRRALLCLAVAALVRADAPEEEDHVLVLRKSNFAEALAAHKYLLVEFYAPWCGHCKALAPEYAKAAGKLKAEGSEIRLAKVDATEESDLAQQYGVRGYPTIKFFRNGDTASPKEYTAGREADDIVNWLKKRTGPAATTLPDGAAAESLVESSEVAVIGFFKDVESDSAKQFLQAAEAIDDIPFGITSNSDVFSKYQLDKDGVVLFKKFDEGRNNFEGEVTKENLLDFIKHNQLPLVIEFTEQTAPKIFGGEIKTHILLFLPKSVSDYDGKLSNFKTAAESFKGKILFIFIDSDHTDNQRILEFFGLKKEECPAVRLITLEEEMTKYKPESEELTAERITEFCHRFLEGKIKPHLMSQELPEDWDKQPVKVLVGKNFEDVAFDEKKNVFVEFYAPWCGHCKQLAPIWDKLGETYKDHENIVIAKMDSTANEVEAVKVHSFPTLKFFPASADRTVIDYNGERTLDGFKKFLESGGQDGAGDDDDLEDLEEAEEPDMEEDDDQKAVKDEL

Estrogen receptor = target: T5, Estrogen receptor (Homo sapiens, UniProt P03372); test: potentiators of ERα–SRC-1 coactivator binding, dose response, biochemical, TR-FRET, ERα LBD (AID 737)
T5 sequence (P03372 whole entry): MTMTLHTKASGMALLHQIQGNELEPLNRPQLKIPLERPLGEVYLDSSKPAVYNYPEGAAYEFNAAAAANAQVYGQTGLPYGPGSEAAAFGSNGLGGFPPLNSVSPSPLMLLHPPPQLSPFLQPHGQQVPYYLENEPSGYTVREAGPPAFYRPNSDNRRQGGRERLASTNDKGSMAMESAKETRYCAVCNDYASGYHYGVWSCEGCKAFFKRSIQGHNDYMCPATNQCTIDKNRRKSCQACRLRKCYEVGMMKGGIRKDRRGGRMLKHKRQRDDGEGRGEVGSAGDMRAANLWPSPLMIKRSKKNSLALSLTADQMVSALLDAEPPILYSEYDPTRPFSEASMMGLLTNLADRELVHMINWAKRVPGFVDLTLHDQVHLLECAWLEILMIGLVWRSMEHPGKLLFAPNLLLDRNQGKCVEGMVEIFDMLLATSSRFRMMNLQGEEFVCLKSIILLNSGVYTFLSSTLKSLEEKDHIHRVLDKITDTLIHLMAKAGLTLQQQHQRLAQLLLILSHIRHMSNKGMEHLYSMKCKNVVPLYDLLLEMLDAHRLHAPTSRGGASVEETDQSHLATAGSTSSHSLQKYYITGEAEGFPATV

Cc1c(C)c2ccc(OCC(=O)Nc3ccccn3)c(C)c2oc1=O
inactive: IC50 [23] > 80 µM
active: AC50 [1] 48.7 µM | AC50 [2] 25.3 µM | EC50 [3] 0.629 µM | AC50 [4] 1.83 µM | EC50 [5] 2.73 µM | AC50 [6] 0.101 µM | AC50 [7] 37.1 µM | AC50 [8] 0.0802 µM | EC50 [9] 0.36 µM | AC50 [10] 1.77 µM | AC50 [11] 0.416 µM | AC50 (H4 [12]) 0.027 µM | EC50 [13] 0.236 µM | AC50 (H4 [14]) 0.021 µM | EC50 [15] 0.214 µM | AC50 [16] 1.71 µM | AC50 [17] 35 µM | AC50 [18] < 0.068 µM | AC50 [19] 33.5 µM | EC50 [20] < 0.16 µM | AC50 [21] 6.61 µM | AC50 (H4 [22]) 0.0103 µM | AC50 [24] 0.429 µM

COc1cccc(CNc2ccc3c(c2)ncn3C(C)C)c1OC
active: AC50 [27] 2.58 µM
inactive: EC50 (Insulin-degrading enzyme [25]) > 54.7 µM | EC50 (Insulin-degrading enzyme [26]) 43.8 µM | EC50 (HEK293 [28]) > 55.9 µM | IC50 (HEK293 [29]) > 89.2 µM

C/C=C(\C)C(=O)OC1[C@H](OC(C)=O)C2(CO)C(CC1(C)C)C1=CCC3C4(C)CCC(O[C@@H]5O[C@H](C(=O)O)[C@@H](O[C@@H]6O[C@H](CO)[C@@H](O)[C@H](O)[C@H]6O)[C@H](O)[C@H]5O[C@H]5O[C@H](CO)[C@@H](O)[C@H](O)[C@H]5O)[C@](C)(CO)C4CCC3(C)[C@]1(C)C[C@H]2O (stereo partly specified)
inactive: IC50 [31] 9.46 µM
active: IC50 (Apelin receptor) 9.07 µM | IC50 [30] 7.82 µM

CCOC1OC(=O)C(Cl)=C1Nc1ccccc1C (stereo unspecified)
active: CC50 [32] > 100 µM

C[C@]12CC[C@@H]3c4ccc(O[C@@H]5O[C@H](C(=O)O)[C@@H](O)[C@H](O)[C@H]5O)cc4CC[C@H]3[C@@H]1C[C@@H](O)[C@@H]2O
active: AC50 [33] 15.7 µM | EC50 (Estrogen receptor) 9.16 µM
> 195 µM (not active): EC50 [20]
